Where two headings read alike, the source gives them in different places.
What was measured:
Format in all cases: biochemical
[1] = molecular target: human ADAMTS-5 (Homo sapiens (Human), UniProt Q9UNA0); assay: hADAMTS-5 TBIS-1 cleavage assay, Protocol 3; conditions: Protocol 3, TBIS-1 substrate, 90 min at 37° C.; read-out: hADAMTS-5 potency IC50
Method: The reaction is initiated by adding to the assay plate TBIS-1 (10 μL, 4.5 μM, Anaspec) in the same buffer.
Finally, the fluorescence is read on the Envision (Perkin Elmer) after an incubation of 90 min at 37° C. (Excitation 485 nm, emission 530).

[2] = molecular target: human ADAMTS6 (Homo sapiens (Human), UniProt Q9UKP5); assay: hADAMTS-6 520 MMP FRET substrate XII cleavage assay; conditions: 37° C. for 2 h, read-out: hADAMTS-6 potency IC50
Summary of the method: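 FRET cleavage of 520 MMP Substrate XII (Arg-Pro-Lys-Pro-Tyr-Ala-Nva-Trp-Met-Lys) by 0.73 nM enzyme in 25 mM Tris pH8.0, 0.05% CHAPS, 2.5 mM CaCl2. Compound dilution series from 20 μM top, 1/5 steps; substrate added from 1 μM stock, 2 h at 37° C. Fluorescence read at exc485/em530 for IC50.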

[3] = molecular target: human TACE (Homo sapiens (Human), UniProt P78536); assay: hTACE 5FAM-[…]-5TAMRA cleavage assay; conditions: 75 min at room temperature, read-out: hTACE potency IC50
Method: Finally, the fluorescence is read on the Envision (Perkin Elmer) after an incubation of 75 min at room temperature (Excitation 485 nm, Emission 530).

[4] = molecular target: human MMP13 (Homo sapiens (Human), UniProt P45452); assay: hMMP13 390 MMP FRET Substrate I cleavage assay, Protocol 2; conditions: Protocol 2, 390 MMP FRET Substrate I; read-out: hMMP-13 potency IC50
Method: The basis for the assay is the cleavage of the substrate 390 MMP FRET Substrate I (Anaspec Cat# AS-27076) by human MMP13 (Chemicon, Cat#CC068).
Human MMP13 is preactivated by incubated the enzyme in the same buffer complemented with 1 mM freshly prepared p-Aminophenylmercuric acetate (AMPA) for 1 h at 37° C.
(§1) The reaction is initiated by adding to the assay plate 390 MMP FRET Substrate I (10 μL, 2.5 μM) in the same buffer.
Finally, the fluorescence is read on the Envision (Perkin Elmer) after an incubation of 45 min at room temperature (Excitation 485 nm, Emission 530).

[5] = molecular target: human MMP14 (Homo sapiens (Human), UniProt P50281); assay: hMMP14 390 MMP FRET Substrate I cleavage assay; conditions: 60 min at room temperature, read-out: hMMP-14 potency IC50
Method: The basis for the assay is the cleavage of the substrate 390 MMP FRET Substrate I (Anaspec Cat# AS-27076) by human MMP14 (Biomol, Cat#SE-259).
as §1
Finally, the fluorescence is read on the Envision (Perkin Elmer) after an incubation of 60 min at room temperature (Excitation 485 nm, Emission 530).

Sequence of human ADAMTS-5 (Q9UNA0 262-930): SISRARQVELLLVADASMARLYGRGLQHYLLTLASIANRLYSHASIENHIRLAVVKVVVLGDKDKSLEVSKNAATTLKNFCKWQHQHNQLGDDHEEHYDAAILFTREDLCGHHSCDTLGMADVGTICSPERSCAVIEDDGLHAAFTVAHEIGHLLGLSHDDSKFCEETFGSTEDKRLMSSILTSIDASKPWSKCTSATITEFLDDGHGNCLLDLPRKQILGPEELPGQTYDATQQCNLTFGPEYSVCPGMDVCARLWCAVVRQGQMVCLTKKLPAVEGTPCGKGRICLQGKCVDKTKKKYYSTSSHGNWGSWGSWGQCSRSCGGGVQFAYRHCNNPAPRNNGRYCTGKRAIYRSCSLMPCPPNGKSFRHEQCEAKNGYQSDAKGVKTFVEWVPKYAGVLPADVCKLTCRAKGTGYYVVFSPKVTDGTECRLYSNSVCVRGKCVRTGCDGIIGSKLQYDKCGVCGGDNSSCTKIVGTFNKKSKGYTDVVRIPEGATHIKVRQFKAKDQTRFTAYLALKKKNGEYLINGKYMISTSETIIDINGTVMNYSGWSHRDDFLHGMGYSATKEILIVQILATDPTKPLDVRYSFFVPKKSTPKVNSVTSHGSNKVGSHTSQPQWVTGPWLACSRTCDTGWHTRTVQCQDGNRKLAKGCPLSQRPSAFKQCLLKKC
Sequence of human TACE (P78536 215-671): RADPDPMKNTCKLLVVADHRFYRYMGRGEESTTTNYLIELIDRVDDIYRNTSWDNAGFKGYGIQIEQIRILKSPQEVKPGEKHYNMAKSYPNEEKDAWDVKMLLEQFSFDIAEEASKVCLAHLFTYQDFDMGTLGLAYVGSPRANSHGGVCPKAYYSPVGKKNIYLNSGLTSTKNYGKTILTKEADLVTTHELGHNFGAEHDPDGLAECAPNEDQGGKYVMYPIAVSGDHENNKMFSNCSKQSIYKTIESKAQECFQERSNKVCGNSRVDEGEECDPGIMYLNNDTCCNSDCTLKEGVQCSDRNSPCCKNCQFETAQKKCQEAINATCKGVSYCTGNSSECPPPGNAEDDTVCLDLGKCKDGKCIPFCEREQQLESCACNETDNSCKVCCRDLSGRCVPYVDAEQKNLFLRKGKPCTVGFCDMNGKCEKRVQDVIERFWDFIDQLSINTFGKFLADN
Sequence of human ADAMTS6 (Q9UKP5 other isoform, or with tags, fused parts or gaps): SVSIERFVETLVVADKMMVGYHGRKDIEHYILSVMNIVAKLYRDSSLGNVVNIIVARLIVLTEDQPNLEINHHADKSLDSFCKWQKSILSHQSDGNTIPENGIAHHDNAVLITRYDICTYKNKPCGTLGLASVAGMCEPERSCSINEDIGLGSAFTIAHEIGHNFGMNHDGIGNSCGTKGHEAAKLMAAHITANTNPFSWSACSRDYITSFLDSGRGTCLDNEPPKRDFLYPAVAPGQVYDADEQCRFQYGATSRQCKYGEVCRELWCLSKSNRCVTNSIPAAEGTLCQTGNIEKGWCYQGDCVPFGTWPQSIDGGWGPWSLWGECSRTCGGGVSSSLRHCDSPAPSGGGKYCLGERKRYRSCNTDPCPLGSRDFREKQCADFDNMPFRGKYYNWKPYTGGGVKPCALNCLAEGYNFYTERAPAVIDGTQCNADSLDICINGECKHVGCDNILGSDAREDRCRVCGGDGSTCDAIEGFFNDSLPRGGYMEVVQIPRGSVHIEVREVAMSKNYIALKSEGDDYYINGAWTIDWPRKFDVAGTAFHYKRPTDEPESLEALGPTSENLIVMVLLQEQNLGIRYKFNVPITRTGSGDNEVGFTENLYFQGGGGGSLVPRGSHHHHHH

| SMILES | IC50 [1] [nM] | IC50 [2] [nM] | IC50 ([3]; 5FAM-[…]-5TAMRA) [nM] | IC50 [4] [nM] | IC50 [5] [nM] | IC50 ([3]; 5FAM-LAQAVRSSSRK-5TAMRA) [nM] |
| --- | --- | --- | --- | --- | --- | --- |
| Cc1cc(Cl)c(Cl)cc1C1CCN(C(=O)CCC2(C)NC(=O)NC2=O)CC1 (centres unmarked) [Cpd 71, 5-(3-(4-(4,5-dichloro-2-methylphenyl)piperidin-1-yl)-3-oxopropyl)-5-methylimidazolidine-2,4-dione] | > 100 | 0.001 to 25 | 50 to 100 | > 100 | > 100 | – |
| COc1cc(C2CCN(C(=O)CC[C@H]3NC(=O)NC3=O)CC2)cc(C)c1Cl [Cpd 115, (5R)-5-[3-[4-(4-chloro-3-methoxy-5-methyl-phenyl)-1-piperidyl]-3-oxo-propyl] imidazolidine-2,4-dione] | > 100 | 0.001 to 25 | 50 to 100 | > 100 | > 100 | – |
| Cc1cc(C2CCN(C(=O)CC[C@@]3(C)NC(=O)NC3=O)CC2)cc(C)c1Cl [Cpd 93, (5R)-5-[3-[4-(4-chloro-3,5-dimethyl-phenyl)-1-piperidyl]-3-oxo-propyl]-5-methyl-imidazolidine-2,4-dione] | > 100 | 0.001 to 25 | 50 to 100 | > 100 | > 100 | – |
| COc1cc(C2CCN(C(=O)CC[C@@]3(C)NC(=O)NC3=O)CC2)cc(N(C)C)c1Cl [Cpd 90, (5R)-5-[3-[4-[4-chloro-3-(dimethylamino)-5-methoxy-phenyl]-1-piperidyl]-3-oxo-propyl]-5-methyl-imidazolidine-2,4-dione] | > 100 | 0.001 to 25 | 50 to 100 | > 100 | > 100 | – |
| COc1cc(Cl)c(Cl)cc1C1CCN(C(=O)CC[C@@]2(C)NC(=O)NC2=O)CC1 [Cpd 96, (5R)-5-[3-[4-(4,5-dichloro-2-methoxy-phenyl)-1-piperidyl]-3-oxo-propyl]-5-methyl-imidazolidine-2,4-dione] | > 100 | 0.001 to 25 | 50 to 100 | > 100 | > 100 | – |
| COC[C@]1(C[C@H](C)C(=O)N2CCC(c3cc(F)c(Cl)c(OC)c3)CC2)NC(=O)NC1=O (stereo in doubt) [Cpd 103, 5-[3-[4-(4-chloro-3-fluoro-5-methoxy-phenyl)-1-piperidyl]-2-methyl-3-oxo-propyl]-5-(methoxymethyl) imidazolidine-2,4-dione] | 0.001 to 25 | 0.001 to 25 | 50 to 100 | > 100 | > 100 | – |
| CCc1cc(C2CCN(C(=O)CC[C@H]3NC(=O)NC3=O)CC2)cc(OC)c1Cl [Cpd 106, (5R)-5-[3-[4-(4-chloro-3-ethyl-5-methoxy-phenyl)-1-piperidyl]-3-oxo-propyl] imidazolidine-2,4-dione] | > 100 | 0.001 to 25 | 50 to 100 | > 100 | > 100 | – |
| COc1cc(Cl)c(C)cc1C1CCN(C(=O)CC[C@@]2(C)NC(=O)NC2=O)CC1 [Cpd 89, (5R)-5-[3-[4-(4-chloro-2-methoxy-5-methyl-phenyl)-1-piperidyl]-3-oxo-propyl]-5-methyl-imidazolidine-2,4-dione] | > 100 | 0.001 to 25 | 50 to 100 | > 100 | > 100 | – |
| COc1cc(C2CCN(C(=O)CC[C@@]3(C)NC(=O)NC3=O)CC2)cc(OC)c1F [Cpd 81, (5R)-5-[3-[4-(4-fluoro-3,5-dimethoxy-phenyl)-1-piperidyl]-3-oxo-propyl]-5-methyl-imidazolidine-2,4-dione] | 50 to 100 | 0.001 to 25 | 25 to 50 | > 100 | > 100 | – |
| COc1cc(Cl)ccc1C1CCN(C(=O)CC[C@@]2(C)NC(=O)NC2=O)CC1 [Cpd 79, (5R)-5-[3-[4-(4-chloro-2-methoxy-phenyl)-1-piperidyl]-3-oxo-propyl]-5-methyl-imidazolidine-2,4-dione] | > 100 | 0.001 to 25 | – | > 100 | > 100 | > 100 |
| COc1cc(C2CCN(C(=O)CC[C@@]3(C)NC(=O)NC3=O)CC2)cc(C)c1Cl [Cpd 98, (5R)-5-[3-[4-(4-chloro-3-methoxy-5-methyl-phenyl)-1-piperidyl]-3-oxo-propyl]-5-methyl-imidazolidine-2,4-dione] | 50 to 100 | 0.001 to 25 | 25 to 50 | > 100 | > 100 | – |
| COc1cc(C2CCN(C(=O)[C@@H](C)C[C@@]3(C)NC(=O)NC3=O)CC2)cc(F)c1Cl [Cpd 102] | 25 to 50 | 0.001 to 25 | 50 to 100 | > 100 | > 100 | – |
| Cc1cc(Cl)c(F)cc1C1CCN(C(=O)CCC2(C)NC(=O)NC2=O)CC1 (centres unmarked) [Cpd 64, 5-(3-(4-(4-chloro-5-fluoro-2-methylphenyl)piperidin-1-yl)-3-oxopropyl)-5-methyl-imidazolidine-2,4-dione] | > 100 | 25 to 50 | – | > 100 | > 100 | > 100 |
| COc1cc(Cl)c(Cl)cc1C1CCN(C(=O)CC[C@H]2NC(=O)NC2=O)CC1 [Cpd 61, (R)-5-(3-(4-(4,5-dichloro-2-methoxyphenyl)piperidin-1-tl)-3-oxopropyl) imidazolidine-2,4-dione] | > 100 | 0.001 to 25 | – | > 100 | > 100 | > 100 |
| COc1c(Cl)cccc1C1CCN(C(=O)CC[C@H]2NC(=O)NC2=O)CC1 [Cpd 74, (R)-5-(3-(4-(3-chloro-2-methoxyphenyl)piperidin-1-yl)-3-oxopropyl) imidazolidine-2,4-dione] | > 100 | > 100 | – | > 100 | > 100 | > 100 |
| COc1cc(C2CCN(C(=O)[C@@H](C)C[C@@]3(C)NC(=O)NC3=O)CC2)cc(C)c1Cl (stereo in doubt) [Cpd 113, 5-[3-[4-(4-chloro-3-methoxy-5-methyl-phenyl)-1-piperidyl]-2-methyl-3-oxo-propyl]-5-methyl-imidazolidine-2,4-dione] | 25 to 50 | 0.001 to 25 | 50 to 100 | > 100 | > 100 | – |
| CCc1cc(C2CCN(C(=O)CC[C@@]3(C)NC(=O)NC3=O)CC2)cc(OC)c1Cl [Cpd 105, (5R)-5-[3-[4-(4-chloro-3-ethyl-5-methoxy-phenyl)-1-piperidyl]-3-oxo-propyl]-5-methyl-imidazolidine-2,4-dione] | > 100 | 0.001 to 25 | 25 to 50 | > 100 | > 100 | – |
| CCc1cc(C2CCN(C(=O)[C@@H](C)C[C@@]3(COC)NC(=O)NC3=O)CC2)cc(OC)c1Cl (stereo in doubt) [Cpd 104, 5-[3-[4-(4-chloro-3-ethyl-5-methoxy-phenyl)-1-piperidyl]-2-methyl-3-oxo-propyl]-5-(methoxymethyl) imidazolidine-2,4-dione] | 25 to 50 | 0.001 to 25 | 50 to 100 | > 100 | > 100 | – |
| COc1cc(C2CCN(C(=O)CCC3(C)NC(=O)NC3=O)CC2)cc(OC)c1F (centres unmarked) [Cpd 72] | > 100 | 0.001 to 25 | – | > 100 | > 100 | > 100 |
| CCOc1cc(C2CCN(C(=O)CC[C@@]3(C)NC(=O)NC3=O)CC2)cc(OC)c1Cl [Cpd 87, (5R)-5-[3-[4-(4-chloro-3-ethoxy-5-methoxy-phenyl)-1-piperidyl]-3-oxo-propyl]-5-methyl-imidazolidine-2,4-dione] | > 100 | 0.001 to 25 | 50 to 100 | > 100 | > 100 | – |
| COc1cc(C2CCN(C(=O)CC[C@@]3(C)NC(=O)NC3=O)CC2)cc(Cl)c1F [Cpd 80, (5R)-5-[3-[4-(3-chloro-4-fluoro-5-methoxy-phenyl)-1-piperidyl]-3-oxo-propyl]-5-methyl-imidazolidine-2,4-dione] | 50 to 100 | 0.001 to 25 | 25 to 50 | > 100 | > 100 | – |
| COc1cc(Cl)c(F)cc1C1CCN(C(=O)C(C)CC2(C)NC(=O)NC2=O)CC1 (centres unmarked) [Cpd 110, 5-[3-[4-(4-chloro-5-fluoro-2-methoxy-phenyl)-1-piperidyl]-2-methyl-3-oxo-propyl]-5-methyl-imidazolidine-2,4-dione] | 50 to 100 | 0.001 to 25 | 50 to 100 | > 100 | > 100 | – |

— patent US10550100B2, “5-[3-[piperzin-1-yl]-3-oxo-propyl]-imidazolidine-2,4-dione derivatives as ADAMTS 4 and 5 inhibitors for treating E.G. osteoarthritis” (GALAPAGOS NV, priority 2016, dated 2020)
